“Also recorded” adds a separate entry of the source.

Consider two molecules from patent publication US20210379099A1 (priority 2020, published 2021).

The format of test [1] is binding. The settings on record: read-out: Kd (Me4CB[8]•guest).
Test [2] deals with PCP-induced hyperlocomotion. Kind of test: In vivo reversal of PCP-induced hyperlocomotion (open field, locomotion counts). Further details: species or system mice. Conditions: listed as PCP.

As for `CNC1(c2ccccc2Cl)CCCCC1=O` (stereo not shown) [Ketamine 7, Ketamine], the Kd in test [1] is 36 nM.

Regarding `c1ccc(C2(N3CCCCC3)CCCCC2)cc1` [PCP 8, Phencyclidine], the “locomotion counts, PCP alone” value in test [2] (experiment 1, male Swiss Webster mice n=8, PCP 2 mg/kg, 0.2 mL infusion, vs saline, Me4CB[8] alone, premix) is recorded as “increased locomotion significantly; also recorded: significant increase in locomotion counts”; in test [2] (experiment 2, male Swiss Webster mice n=9, PCP 1.95 mg/kg, vs saline and sequential infusions), “significantly increased locomotion counts; also recorded: significant increase in locomotion counts”. Moreover, the equilibrium dissociation constant (Kd) in test [1] is 2 nM.
